The text below walks through data of ChEMBL document CHEMBL6153110, “Peptide Double-Stapling and Arginine N-Glycosylation Triggered the Development of Therapeutic Antimicrobial Peptides Capable of Killing Drug-Resistant Bacteria in Mice” (J Med Chem, 2025).

What all share (format): functional
One test relates to Staphylococcus aureus. The test can be described thus: Antimicrobial activity against methicillin-resistant Staphylococcus aureus ATCC 43300 assessed as growth inhibition measured after 8 hrs incubation by standard broth dilution assay. On the technique in general: In broth dilution the organism is exposed to a series of concentrations in liquid medium.
In the next test the test system is Klebsiella pneumoniae. The test can be described thus: Antimicrobial activity against Klebsiella pneumoniae ATCC 13883 assessed as growth inhibition measured after 8 hrs incubation by standard broth dilution assay.
The test system of the next test is Streptococcus pneumoniae. The test can be described thus: Antimicrobial activity against Streptococcus pneumoniae ATCC 49619 assessed as growth inhibition measured after 8 hrs incubation by standard broth dilution assay.
In another test the test system is Pseudomonas aeruginosa. Description: Antimicrobial activity against Pseudomonas aeruginosa ATCC 27853 assessed as growth inhibition measured after 8 hrs incubation by standard broth dilution assay.

A word on the MIC: it is the lowest concentration that inhibits growth of the organism.

SMILES strings stand for the structures. In brackets after ≈: the same amount, converted by molar mass. Positions of bridges follow the written chain, without caps; N, C: chain ends. Non-standard residues stand in square brackets, D forms with d. Residues, ends and D or L forms follow the SMILES beside them. R8 = C=CCCCCCC[C@@](C)(N)C(=O)O; S5 = C=CCCC[C@](C)(N)C(=O)O

As for `CC(=O)N[C@@H](CC(C)C)C(=O)N[C@@H](CCCCN)C(=O)N[C@@H](CCCNC(=N)N)C(=O)N[C@H](C(=O)N[C@@H](Cc1c[nH]c2ccccc12)C(=O)N[C@@H](CCCCN)C(=O)N[C@@H](CCCNC(=N)N)C(=O)N[C@H](C(=O)N[C@@H](Cc1ccccc1)C(=O)N[C@@H](CCCCN)C(=O)N[C@@H](CC(C)C)C(=O)N[C@@H](CC(C)C)C(=O)N[C@@H](CCCCN)C(=O)N[C@@H](CCCNC(=N)N)C(=O)N[C@@H](Cc1ccc(O)cc1)C(=O)N[C@@H](Cc1c[nH]c2ccccc12)C(=O)N[C@@H](CCCNC(=N)N)C(=O)N[C@@H](CCC(N)=O)C(=O)N[C@@]1(C)CCC/C=C\CCC[C@@](C)(C(=O)N[C@@H](CCCNC(=N)N)C(N)=O)NC(=O)[C@@H]2CCCN2C(=O)[C@H](CCCCN)NC(=O)[C@H](CCCCN)NC1=O)C(C)C)C(C)C` (Ac-LKRVWKRVFKLLKRYWRQ[S5]KKP[S5]R-NH2; staple (Z) 19-23), the MIC in the test with Staphylococcus aureus was found to be 19.1 µg/mL (≈ 5.78 µM); with Klebsiella pneumoniae, 38 µg/mL (≈ 11.5 µM); with Streptococcus pneumoniae, 9.6 µg/mL (≈ 2.9 µM); with Pseudomonas aeruginosa it was 5 µg/mL (≈ 1.51 µM).
In the case of `CC(=O)N[C@@H](CC(C)C)C(=O)N[C@@H](CCCCN)C(=O)N[C@@H](CCCNC(=N)N)C(=O)N[C@H](C(=O)N[C@@H](Cc1c[nH]c2ccccc12)C(=O)N[C@@H](CCCCN)C(=O)N[C@@H](CCCNC(=N)N)C(=O)N[C@H](C(=O)N[C@@H](Cc1ccccc1)C(=O)N[C@@H](CCCCN)C(=O)N[C@@H](CC(C)C)C(=O)N[C@@H](CC(C)C)C(=O)N[C@@H](CCCCN)C(=O)N[C@@H](CCCNC(=N)N)C(=O)N[C@@H](Cc1ccc(O)cc1)C(=O)N[C@@H](Cc1c[nH]c2ccccc12)C(=O)N[C@@H](CCCNC(=N)N)C(=O)N[C@@]1(C)CCC/C=C\CCC[C@@](C)(C(=O)N[C@H](C(=O)N[C@@H](CCCNC(=N)N)C(N)=O)C(C)C)NC(=O)[C@H](CCCCN)NC(=O)[C@H](CCCCN)NC(=O)[C@H](CC(C)C)NC1=O)C(C)C)C(C)C` (Ac-LKRVWKRVFKLLKRYWR[S5]LKK[S5]VR-NH2; staple (Z) 18-22), the minimum inhibitory concentration (MIC) in the test with Staphylococcus aureus is 4.9 µg/mL (≈ 1.49 µM); in the test with Klebsiella pneumoniae, 38 µg/mL (≈ 11.5 µM); with Streptococcus pneumoniae, 37.7 µg/mL (≈ 11.5 µM); in the test with Pseudomonas aeruginosa, 9.8 µg/mL (≈ 2.98 µM).
With `CC(=O)N[C@@H](CC(C)C)C(=O)N[C@@H](CCCCN)C(=O)N[C@@H](CCCNC(=N)N)C(=O)N[C@H](C(=O)N[C@@H](Cc1c[nH]c2ccccc12)C(=O)N[C@@H](CCCCN)C(=O)N[C@@H](CCCNC(=N)N)C(=O)N[C@H](C(=O)N[C@@H](Cc1ccccc1)C(=O)N[C@@H](CCCCN)C(=O)N[C@@H](CC(C)C)C(=O)N[C@@H](CC(C)C)C(=O)N[C@@H](CCCCN)C(=O)N[C@@H](CCCNC(=N)N)C(=O)N[C@@H](Cc1ccc(O)cc1)C(=O)N[C@]1(C)CCCCCC/C=C\CCC[C@@](C)(C(=O)N[C@@H](CCCNC(=N)N)C(N)=O)NC(=O)[C@@H]2CCCN2C(=O)[C@H](CCCCN)NC(=O)[C@H](CCCCN)NC(=O)[C@H](CC(C)C)NC(=O)[C@H](CCC(N)=O)NC(=O)[C@H](CCCNC(=N)N)NC1=O)C(C)C)C(C)C` (Ac-LKRVWKRVFKLLKRY[R8]RQLKKP[S5]R-NH2; staple (Z) 16-23), the MIC amounted to 9.7 µg/mL (≈ 2.96 µM) in the test with Staphylococcus aureus, 2.5 µg/mL (≈ 0.764 µM) in the test with Klebsiella pneumoniae, 19 µg/mL (≈ 5.8 µM) with Streptococcus pneumoniae and 2.6 µg/mL (≈ 0.794 µM) in the test with Pseudomonas aeruginosa.
Turning to `CC(=O)N[C@@H](CC(C)C)C(=O)N[C@@H](CCCCN)C(=O)N[C@@H](CCCNC(=N)N)C(=O)N[C@H](C(=O)N[C@@H](Cc1c[nH]c2ccccc12)C(=O)N[C@@H](CCCCN)C(=O)N[C@@H](CCCNC(=N)N)C(=O)N[C@H](C(=O)N[C@@H](Cc1ccccc1)C(=O)N[C@@H](CCCCN)C(=O)N[C@@H](CC(C)C)C(=O)N[C@@H](CC(C)C)C(=O)N[C@@H](CCCCN)C(=O)N[C@@H](CCCNC(=N)N)C(=O)N[C@@H](Cc1ccc(O)cc1)C(=O)N[C@@]1(C)CCC/C=C\CCC[C@@](C)(C(=O)N[C@@H](CCCCN)C(=O)N2CCC[C@H]2C(=O)N[C@H](C(=O)N[C@@H](CCCNC(=N)N)C(N)=O)C(C)C)NC(=O)[C@H](CC(C)C)NC(=O)[C@H](CCC(N)=O)NC(=O)[C@H](CCCNC(=N)N)NC1=O)C(C)C)C(C)C` (Ac-LKRVWKRVFKLLKRY[S5]RQL[S5]KPVR-NH2; staple (Z) 16-20), the MIC in the test with Staphylococcus aureus was 2.5 µg/mL (≈ 0.78 µM); with Klebsiella pneumoniae, 38 µg/mL (≈ 11.9 µM); in the test on Streptococcus pneumoniae, 19 µg/mL (≈ 5.93 µM); with Pseudomonas aeruginosa, 5 µg/mL (≈ 1.56 µM).
The corresponding values for `CC(=O)N[C@@H](CC(C)C)C(=O)N[C@@H](CCCCN)C(=O)N[C@@H](CCCNC(=N)N)C(=O)N[C@H](C(=O)N[C@@H](Cc1c[nH]c2ccccc12)C(=O)N[C@@H](CCCCN)C(=O)N[C@@H](CCCNC(=N)N)C(=O)N[C@H](C(=O)N[C@@H](Cc1ccccc1)C(=O)N[C@@H](CCCCN)C(=O)N[C@@H](CC(C)C)C(=O)N[C@@H](CC(C)C)C(=O)N[C@@H](CCCCN)C(=O)N[C@@H](CCCNC(=N)N)C(=O)N[C@]1(C)CCCCCC/C=C\CCC[C@@](C)(C(=O)N[C@H](C(=O)N[C@@H](CCCNC(=N)N)C(N)=O)C(C)C)NC(=O)[C@H](CCCCN)NC(=O)[C@H](CCCCN)NC(=O)[C@H](CC(C)C)NC(=O)[C@H](CCC(N)=O)NC(=O)[C@H](CCCNC(=N)N)NC(=O)[C@H](Cc2c[nH]c3ccccc23)NC1=O)C(C)C)C(C)C` (Ac-LKRVWKRVFKLLKR[R8]WRQLKK[S5]VR-NH2; staple (Z) 15-22) are 4.9 µg/mL (≈ 1.49 µM), 38 µg/mL (≈ 11.5 µM), 37.7 µg/mL (≈ 11.4 µM) and 9.9 µg/mL (≈ 3 µM).
As to `CC(=O)N[C@@H](CC(C)C)C(=O)N[C@@H](CCCCN)C(=O)N[C@@H](CCCNC(=N)N)C(=O)N[C@H](C(=O)N[C@@H](Cc1c[nH]c2ccccc12)C(=O)N[C@@H](CCCCN)C(=O)N[C@@H](CCCNC(=N)N)C(=O)N[C@H](C(=O)N[C@@H](Cc1ccccc1)C(=O)N[C@@H](CCCCN)C(=O)N[C@@H](CC(C)C)C(=O)N[C@@H](CC(C)C)C(=O)N[C@@H](CCCCN)C(=O)N[C@@H](CCCNC(=N)N)C(=O)N[C@@]1(C)CCC/C=C\CCC[C@@](C)(C(=O)N[C@@H](CCCCN)C(=O)N[C@@H](CCCCN)C(=O)N2CCC[C@H]2C(=O)N[C@H](C(=O)N[C@@H](CCCNC(=N)N)C(N)=O)C(C)C)NC(=O)[C@H](CCC(N)=O)NC(=O)[C@H](CCCNC(=N)N)NC(=O)[C@H](Cc2c[nH]c3ccccc23)NC1=O)C(C)C)C(C)C` (Ac-LKRVWKRVFKLLKR[S5]WRQ[S5]KKPVR-NH2; staple (Z) 15-19), the minimal inhibitory concentration (MIC) in the test with Staphylococcus aureus amounted to 19.1 µg/mL (≈ 5.89 µM); in the test on Klebsiella pneumoniae it was 38 µg/mL (≈ 11.7 µM); in the test on Streptococcus pneumoniae it was 37.7 µg/mL (≈ 11.6 µM); in the test with Pseudomonas aeruginosa, 9.9 µg/mL (≈ 3.05 µM).
The like results for `CC(=O)N[C@@H](CC(C)C)C(=O)N[C@@H](CCCCN)C(=O)N[C@@H](CCCNC(=N)N)C(=O)N[C@H](C(=O)N[C@@H](Cc1c[nH]c2ccccc12)C(=O)N[C@@H](CCCCN)C(=O)N[C@@H](CCCNC(=N)N)C(=O)N[C@H](C(=O)N[C@@H](Cc1ccccc1)C(=O)N[C@@H](CCCCN)C(=O)N[C@@H](CC(C)C)C(=O)N[C@]1(C)CCCCCC/C=C\CCC[C@@](C)(C(=O)N[C@@H](CCCCN)C(=O)N[C@@H](CCCCN)C(=O)N2CCC[C@H]2C(=O)N[C@H](C(=O)N[C@@H](CCCNC(=N)N)C(N)=O)C(C)C)NC(=O)[C@H](CCC(N)=O)NC(=O)[C@H](CCCNC(=N)N)NC(=O)[C@H](Cc2c[nH]c3ccccc23)NC(=O)[C@H](Cc2ccc(O)cc2)NC(=O)[C@H](CCCNC(=N)N)NC(=O)[C@H](CCCCN)NC1=O)C(C)C)C(C)C` (Ac-LKRVWKRVFKL[R8]KRYWRQ[S5]KKPVR-NH2; staple (Z) 12-19) were, in that order, 4.9 µg/mL (≈ 1.47 µM), 38 µg/mL (≈ 11.4 µM), 4.7 µg/mL (≈ 1.41 µM) and 2.6 µg/mL (≈ 0.78 µM).
